Results taken from patent publication US8501683B2, “Cycloundecadepsipeptide compounds and use of said compounds as a medicament” (priority 2008, dated 2013).
Square brackets hold non-standard residues; d marks the D form. Peptide text beside a SMILES is read from it. MeBmt = C/C=C/C[C@@H](C)[C@@H](O)[C@H](NC)C(=O)O; NMeI = CC[C@H](C)[C@H](NC)C(=O)O; NEtVal = CCN[C@H](C(=O)O)C(C)C; NMeL = CN[C@@H](CC(C)C)C(=O)O; NMeV = CN[C@H](C(=O)O)C(C)C; dHiv = CC(C)[C@@H](O)C(=O)O; NMeA = CN[C@@H](C)C(=O)O; dNMeA = CN[C@H](C)C(=O)O; Abu = CC[C@H](N)C(=O)O; Sar = CNCC(=O)O

Legend:
[1] = molecular target: multidrug resistance associated protein 2 (MRP2) (Homo sapiens, UniProt Q92887); conditions: for MRP2 fold Debio 025: IC50 ratio compared to Debio 025
Protocol: (§1) To determine whether the cycloundecadepsipeptide compounds of the present invention interact with hepatic transporters, experiments were carried out that compared the concentration-dependent inhibition towards the multidrug resistance associated protein 2 (MRP2), the organic anion transporting polypeptide 1B1 (OATP1B1), the bile salt export pump (BSEP) and the sodium-taurocholate cotransporting polypeptide (NTCP). These transporters are involved in the hepatobiliary circulation of endogenous compounds such as bile salts or bilirubin (for a review, see C. Pauli-Magnus et al, J. Hepatology, 2005, 43:342-357). Some of them also contribute to the elimination of xenobiotics.
(§2) MRP2 and BSEP were expressed by SOLVO Biotechnology in Spodoptera frugiperda (Sf9) ovarian cells, by infecting the insect cells with a recombinant baculovirus. The inhibition of the transport of the radioactive probe substrates (estradiol-17-beta-glucuronide and taurocholate for MRP2 and BSEP, respectively) into inside-out membrane vesicles, containing the transporter, was measured by scintillation counting.
(§3) The IC50 (defined as the concentration required for inhibiting the transport of the probe substrate by 50%, half maximal inhibitory concentration) of the compounds was derived from the concentration-response curve and compared to the IC50 of Debio 025 (IC50 ratio expressed as “fold Debio 025” in the tables).

[2] = molecular target: bile salt export pump (BSEP) (Homo sapiens, UniProt O95342); conditions: for BSEP fold Debio 025: IC50 ratio compared to Debio 025
Protocol: as §1, §2, §3

[3] = Cytostatic/cytotoxic effect, MTT (MTS) assay in Huh 9-13 cells; assay type: cell-based; conditions: metabolic activity reduced to 50% of untreated cells
Description: Assays used Huh 9-13 containing the hepatitis C virus genotype 1b Con1 replicon (Lohmann et al. 2001. J. Virol. 75:1437-1449; and Lohmann et al. 1999. Science. 285:110-113). Cells were sub-cultured in cell growth medium DMEM supplemented with 10% FCS, 1% non-essential amino acids, 1% penicillin/streptomycin and 2% Geneticin (Invitrogen) at a ratio of 1:4-1:5 and grown for 3-4 days in 75 cm^2 tissue culture flasks (Techno Plastic Products), were harvested and seeded in assay medium (DMEM, 10% FCS, 1% non-essential amino acids, 1% penicillin/streptomycin) at a density of 5 000 cells/well (100 μl/well) in 96-well tissue culture microtiter plates (Falcon, Beckton Dickinson) for evaluation of cytostatic/cytotoxic and antiviral effect. The microtiter plates were incubated overnight (37° C., 5% CO2, 95-99% relative humidity), yielding a non-confluent cell monolayer.
Cell density and cytostatic effects were estimated in parallel cultures in regular 96-well plates (Beckton-Dickinson) using the MTT assay (CellTiter 96 AQueous Non-Radioactive Cell Proliferation Assay, Promega). In this assay, 3-(4,5-dimethyl-thiazol-2-yl)-5-(3-carboxymethoxy-phenyl)-2-(4-sulfophenyl)-2H-tetrazolium (MTS) is bioreduced to a formazan that is quantified at 498 nm in a plate reader. Formazan production is directly correlated with number of life cells. Absorbance was measured at a wavelength of 498 nm (Safire^2, Tecan) and optical densities (OD values) were converted to percentage of untreated controls.
The compounds were dissolved in DMSO at a concentration of 4 mmole/L. Stock solutions were immediately used to set up the experiments. The compounds were tested at 24 different concentrations ranging from 0.0001 μmole/L to 100 μmole/L. The highest concentration of DMSO in the assay was determined to be 2.5% (at 100 μM final concentration of the compound). During the assay setup, the DMSO percentage decreased concomitantly with decrease in concentration of the compound.
The EC50 (value derived from the dose-response curve) represents the concentration at which 50% inhibition of viral replication is observed. The CC50 (value derived from the dose-response curve) represents the concentration at which the metabolic activity of the cells is reduced to 50% of the metabolic activity of untreated cells.
Results from these experiments permitted calculation of EC50±SD (standard deviation or Std. Dev.), which is the effective concentration required to inhibit HCV replicon replication by 50%, and of CC50±SD (whenever possible), which is the concentration required that inhibits the proliferation of exponentially growing cells by 50%. EC50 and CC50±SD values were calculated respectively as the median of all the EC50, or CC50 values derived from the 3 individual dose-response curves. The selectivity index (SI), indicative of the therapeutic window of the compound was calculated as the ratio between CC50 and EC50.

[4] = molecular target: organic anion transporting polypeptide 1B1 (OATP1B1) (Homo sapiens, UniProt Q9Y6L6)
Protocol: as §1
OATP1B1 and NTCP assays were performed with Chinese hamster ovary (CHO) cells expressing these human uptake transporters. The amount of the transported probe substrate (estrone-3-sulfate and taurocholate for OATP1B1 and NTCP, respectively) was determined by liquid scintillation or fluorescent photometry after cell lysis.
as §3

[5] = test system: Concanavalin-A-induced T-cell proliferation; assay: Concanavalin-A-induced T-cell proliferation assay (immunosuppression); assay type: cell-based; conditions: inhibition of Concanavalin-A-induced T-cell proliferation
Protocol: To determine whether the cycloundecadepsipepide compounds of the present invention have a non-immunosuppression activity, experiments were carried out that compared the dose-dependent inhibition of Concanavalin-A-induced T-cell proliferation (see Table 2).
The method of the assays were performed as described by Dayton et al. (1992. Mol. Pharmacol. 41. 671-676) and Mishell et al. (1980. Cell proliferation in selected methods in cellular immunology, V, XXIX, W.H. Freeman Co., San Francisco, Calif. 153-160).

[6] = molecular target: T1, sodium-taurocholate cotransporting polypeptide (NTCP) (Homo sapiens, UniProt Q14973); assay: NTCP inhibition, taurocholate uptake in CHO cells; assay type: in vitro ADME; conditions: for NTCP fold Debio 025: IC50 ratio compared to Debio 025
T1 sequence (Q14973 1-349): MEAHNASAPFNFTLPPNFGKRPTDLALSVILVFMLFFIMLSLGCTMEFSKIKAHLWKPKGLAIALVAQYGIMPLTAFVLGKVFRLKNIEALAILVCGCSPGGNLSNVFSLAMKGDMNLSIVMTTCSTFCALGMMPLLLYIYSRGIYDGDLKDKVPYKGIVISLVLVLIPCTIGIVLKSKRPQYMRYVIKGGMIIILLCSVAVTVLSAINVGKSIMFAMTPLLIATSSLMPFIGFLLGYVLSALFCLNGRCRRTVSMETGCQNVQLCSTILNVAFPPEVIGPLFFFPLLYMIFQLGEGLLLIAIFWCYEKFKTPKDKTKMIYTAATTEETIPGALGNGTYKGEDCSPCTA

[7] = test system: hepatitis C virus genotype 1b Con1 replicon; assay: HCV replicon assay, replicon RNA by RT-qPCR in Huh 9-13 cells; assay type: cell-based; conditions: 50% inhibition of HCV replicon replication, 3 dose-response curves
Protocol: For the evaluation of antiviral effects, assay medium was aspirated and the plates with dry monolayer were stored at −80° C. awaiting extraction. Following thawing of the plates at room temperature, the cell monolayer was lysed with 100 μl of cell-to-cDNA lysis buffer (Invitrogen). Lysis of the cells was allowed to proceed for 10 min at room temperature after which all liquid was transferred to a PCR plate (Axygen). The PCR plate was incubated for 15 min at 75° C. […] The lysate was diluted 1:2 with RNase/DNase-free water, after which 5 μl was transferred to the real-time PCR plate (Applied Biosystems).
Replicon RNA content was quantified using a real-time quantitative one-step RT-PCR method (RT-qPCR): Low Rox One-Step RT-qPCR master mix, Abgene). […] The fluorogenic probe was 5′-[sequence]-3′. The analysis of the samples were performed using a SDS7500F (Applied Biosystems, standard thermocycling profile: 30 min at 48° C., 10 min at 95° C., 40 cycles of 15 sec at 95° C. and 1 min at 60° C.) after which replicon RNA quantities were converted to percentage of untreated controls.

[8] = human, Huh 9-13 cells containing the HCV genotype 1b Con1 replicon

Chain of bile salt export pump (BSEP) (O95342 whole entry): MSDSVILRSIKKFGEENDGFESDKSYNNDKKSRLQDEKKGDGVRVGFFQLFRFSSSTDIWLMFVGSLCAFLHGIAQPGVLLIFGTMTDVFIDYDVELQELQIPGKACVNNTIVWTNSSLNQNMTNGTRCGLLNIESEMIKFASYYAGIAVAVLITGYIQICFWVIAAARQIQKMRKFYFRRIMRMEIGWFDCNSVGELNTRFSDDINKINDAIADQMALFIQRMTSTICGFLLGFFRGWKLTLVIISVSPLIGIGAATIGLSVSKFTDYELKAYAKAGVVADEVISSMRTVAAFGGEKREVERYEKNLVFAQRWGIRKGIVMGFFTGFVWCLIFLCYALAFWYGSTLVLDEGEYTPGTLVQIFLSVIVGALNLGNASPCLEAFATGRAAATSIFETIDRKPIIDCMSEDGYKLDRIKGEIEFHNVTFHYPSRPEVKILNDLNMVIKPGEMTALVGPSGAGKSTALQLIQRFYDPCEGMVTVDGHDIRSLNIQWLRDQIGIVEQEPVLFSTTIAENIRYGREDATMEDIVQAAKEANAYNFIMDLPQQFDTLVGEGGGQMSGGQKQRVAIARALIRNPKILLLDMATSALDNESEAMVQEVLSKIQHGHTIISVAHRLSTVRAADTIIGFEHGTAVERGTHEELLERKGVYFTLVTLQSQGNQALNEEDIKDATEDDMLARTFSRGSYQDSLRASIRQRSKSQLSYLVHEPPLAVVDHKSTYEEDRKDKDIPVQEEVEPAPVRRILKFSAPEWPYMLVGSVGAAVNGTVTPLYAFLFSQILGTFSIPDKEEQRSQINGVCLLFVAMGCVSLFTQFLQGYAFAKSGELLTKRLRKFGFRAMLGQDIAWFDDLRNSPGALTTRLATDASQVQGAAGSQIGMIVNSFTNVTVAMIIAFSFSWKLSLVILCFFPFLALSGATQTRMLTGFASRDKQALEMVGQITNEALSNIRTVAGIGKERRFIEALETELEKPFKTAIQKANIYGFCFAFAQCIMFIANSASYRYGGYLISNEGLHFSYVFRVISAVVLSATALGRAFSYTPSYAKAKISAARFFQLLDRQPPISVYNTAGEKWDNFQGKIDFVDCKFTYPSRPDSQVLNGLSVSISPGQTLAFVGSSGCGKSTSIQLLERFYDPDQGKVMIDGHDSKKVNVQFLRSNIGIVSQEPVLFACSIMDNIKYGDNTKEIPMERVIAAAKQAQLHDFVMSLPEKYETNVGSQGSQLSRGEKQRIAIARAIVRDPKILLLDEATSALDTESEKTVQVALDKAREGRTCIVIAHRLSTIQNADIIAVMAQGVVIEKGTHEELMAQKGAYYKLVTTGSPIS
Chain of multidrug resistance associated protein 2 (MRP2) (Q92887 whole entry): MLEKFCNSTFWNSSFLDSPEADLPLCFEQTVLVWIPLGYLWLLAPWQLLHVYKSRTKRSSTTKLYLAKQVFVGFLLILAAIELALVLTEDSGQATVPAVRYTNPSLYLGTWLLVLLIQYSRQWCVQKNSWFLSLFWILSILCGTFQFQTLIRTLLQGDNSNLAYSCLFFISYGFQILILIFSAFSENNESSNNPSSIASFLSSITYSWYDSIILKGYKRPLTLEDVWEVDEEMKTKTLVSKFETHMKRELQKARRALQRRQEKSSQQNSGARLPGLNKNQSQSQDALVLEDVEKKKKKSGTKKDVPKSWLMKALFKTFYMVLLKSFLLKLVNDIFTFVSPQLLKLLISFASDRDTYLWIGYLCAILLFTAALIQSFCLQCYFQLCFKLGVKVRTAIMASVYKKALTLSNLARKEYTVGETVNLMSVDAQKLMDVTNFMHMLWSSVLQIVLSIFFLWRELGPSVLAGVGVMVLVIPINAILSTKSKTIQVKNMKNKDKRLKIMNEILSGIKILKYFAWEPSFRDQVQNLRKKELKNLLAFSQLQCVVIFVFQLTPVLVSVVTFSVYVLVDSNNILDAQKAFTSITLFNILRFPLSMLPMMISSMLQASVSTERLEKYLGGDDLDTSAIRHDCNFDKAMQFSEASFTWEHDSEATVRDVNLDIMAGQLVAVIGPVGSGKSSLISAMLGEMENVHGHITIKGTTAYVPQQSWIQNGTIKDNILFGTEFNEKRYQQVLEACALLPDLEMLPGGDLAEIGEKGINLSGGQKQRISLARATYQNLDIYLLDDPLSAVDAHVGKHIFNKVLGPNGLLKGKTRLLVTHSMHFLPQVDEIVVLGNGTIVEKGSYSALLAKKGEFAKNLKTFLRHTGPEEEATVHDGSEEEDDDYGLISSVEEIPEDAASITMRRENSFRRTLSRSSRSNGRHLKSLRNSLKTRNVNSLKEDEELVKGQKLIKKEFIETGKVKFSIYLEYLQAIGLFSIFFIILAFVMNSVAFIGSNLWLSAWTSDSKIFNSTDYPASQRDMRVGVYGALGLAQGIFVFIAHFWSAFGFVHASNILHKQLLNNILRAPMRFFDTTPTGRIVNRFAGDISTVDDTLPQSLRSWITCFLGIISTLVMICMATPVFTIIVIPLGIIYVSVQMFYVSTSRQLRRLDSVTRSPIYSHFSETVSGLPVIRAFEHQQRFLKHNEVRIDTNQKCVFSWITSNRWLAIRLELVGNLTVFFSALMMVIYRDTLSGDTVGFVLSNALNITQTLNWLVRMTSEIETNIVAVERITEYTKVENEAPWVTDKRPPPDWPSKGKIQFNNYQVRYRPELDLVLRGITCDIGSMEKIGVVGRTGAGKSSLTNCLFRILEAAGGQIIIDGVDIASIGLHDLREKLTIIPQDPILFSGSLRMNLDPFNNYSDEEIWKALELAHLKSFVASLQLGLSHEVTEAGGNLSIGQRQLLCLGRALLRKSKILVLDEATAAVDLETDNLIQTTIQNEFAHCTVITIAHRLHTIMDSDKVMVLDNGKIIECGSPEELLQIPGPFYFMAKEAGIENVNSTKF
Chain of organic anion transporting polypeptide 1B1 (OATP1B1) (Q9Y6L6 whole entry): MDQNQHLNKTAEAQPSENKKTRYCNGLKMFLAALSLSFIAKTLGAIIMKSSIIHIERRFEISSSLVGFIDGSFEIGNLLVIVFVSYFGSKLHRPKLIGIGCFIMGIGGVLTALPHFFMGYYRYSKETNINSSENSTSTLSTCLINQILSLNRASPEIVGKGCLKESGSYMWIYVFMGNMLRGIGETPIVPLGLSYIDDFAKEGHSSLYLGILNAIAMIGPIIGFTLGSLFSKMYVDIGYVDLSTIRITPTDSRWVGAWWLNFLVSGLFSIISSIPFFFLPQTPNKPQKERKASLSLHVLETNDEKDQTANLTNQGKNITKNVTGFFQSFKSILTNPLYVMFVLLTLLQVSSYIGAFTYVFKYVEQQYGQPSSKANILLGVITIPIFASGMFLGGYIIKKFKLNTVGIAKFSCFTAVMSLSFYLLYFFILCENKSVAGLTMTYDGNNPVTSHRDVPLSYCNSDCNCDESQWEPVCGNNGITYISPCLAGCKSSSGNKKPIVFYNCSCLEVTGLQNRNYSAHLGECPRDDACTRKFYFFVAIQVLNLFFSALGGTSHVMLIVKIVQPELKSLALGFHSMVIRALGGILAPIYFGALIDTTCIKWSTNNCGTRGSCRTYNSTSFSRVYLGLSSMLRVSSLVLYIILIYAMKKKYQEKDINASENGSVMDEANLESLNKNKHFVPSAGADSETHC

Row | Compound | IC50 [1] [nM] | MRP2 fold Debio 025 [1] | IC50 [2] [nM] | BSEP fold Debio 025 [2] | CC50 [3, 8] [nM] | IC50 [4] [nM] | OATP1B fold Debio 025 [4] | IC50 [5] [nM] | NTCP fold Debio 025 [6] | IC50 ([6]; probe taurocholate, CHO cells) [nM] | EC50 [7] [nM] | CC50 [3] [nM] | MRP2 IC50 [1] | NTCP IC50 ([6]; probe taurocholate, CHO cells)
1 | C/C=C/C[C@@H](C)[C@@H](O)[C@H]1C(=O)N[C@@H](C(C)C)C(=O)N(C)[C@H](C)C(=O)N(C)[C@@H](C(C)C)C(=O)N[C@@H]([C@@H](C)CC)C(=O)N(C)[C@@H](CC(C)C)C(=O)NCC(=O)O[C@H](C(C)C)C(=O)N(C)[C@@H](CC(C)C)C(=O)N[C@@H](CC(C)C)C(=O)N(C)[C@@H](C(C)C)C(=O)N1C [(Ic), cyclo-(MeBmt-Val-D-MeAla-MeVal-Ile-MeLeu-Gly-D-Hiv-MeLeu-Leu-MeVal)] (cyclo(G[dHiv][NMeL]L[NMeV][MeBmt]V[dNMeA][NMeV]I[NMeL])) | 2200 | 6.6 | 160 | 1.5 | 86900 | 2300 | 0.18 | 984 | 0.11 | 30000 | 22 |  |  | 
2 | C/C=C/C[C@@H](C)[C@@H](O)[C@H]1C(=O)N[C@@H](C(C)C)C(=O)N(C)[C@H](C)C(=O)N(C)[C@@H](C(C)C)C(=O)N[C@@H](C(C)C)C(=O)N(C)CC(=O)NCC(=O)O[C@H](C(C)C)C(=O)N(C)[C@@H](CC(C)C)C(=O)N[C@@H](CC(C)C)C(=O)N(C)[C@@H](C(C)C)C(=O)N1C [(Ik), cyclo-(MeBmt-Val-D-MeAla-MeVal-Val-Sar-Gly-D-Hiv-MeLeu-Leu-MeVal)] (cyclo(G[dHiv][NMeL]L[NMeV][MeBmt]V[dNMeA][NMeV]V[Sar])) |  |  |  |  |  |  |  |  |  |  |  | 9800 |  | 
3 | C/C=C/C[C@@H](C)[C@@H](O)[C@H]1C(=O)N[C@@H](C(C)C)C(=O)N(C)[C@H](C)C(=O)N(CC)[C@@H](C(C)C)C(=O)N[C@@H](CC(C)C)C(=O)N(C)[C@@H](CC(C)C)C(=O)N[C@@H](C)C(=O)O[C@H](C(C)C)C(=O)N(C)[C@@H](CC(C)C)C(=O)N[C@@H](CC(C)C)C(=O)N(C)[C@@H](C(C)C)C(=O)N1C [(Ih), cyclo-(MeBmt-Val-D-MeAla-EtVal-Leu-MeLeu-Ala-D-Hiv-MeLeu-Leu-MeVal)] (cyclo(A[dHiv][NMeL]L[NMeV][MeBmt]V[dNMeA][NEtVal]L[NMeL])) |  |  | 300 | 0.80 | 20500 | 12000 | 0.04 | 1740 |  |  | 22 |  | n.i. | n.i.
4 | C/C=C/C[C@@H](C)[C@@H](O)[C@H]1C(=O)N[C@@H](CC)C(=O)N(C)[C@H](C)C(=O)N(C)[C@@H](C(C)C)C(=O)N[C@@H]([C@@H](C)CC)C(=O)N(C)[C@@H](CC(C)C)C(=O)NCC(=O)O[C@H](C(C)C)C(=O)N(C)[C@@H](CC(C)C)C(=O)N[C@@H](CC(C)C)C(=O)N(C)[C@@H](C(C)C)C(=O)N1C [(Ig), cyclo-(MeBmt-Abu-D-MeAla-MeVal-Ile-MeLeu-Gly-D-Hiv-MeLeu-Leu-MeVal)] (cyclo([Abu][dNMeA][NMeV]I[NMeL]G[dHiv][NMeL]L[NMeV][MeBmt])) |  |  |  |  |  |  |  |  |  |  |  | 67000 |  | 
5 | C/C=C/C[C@@H](C)[C@@H](O)[C@H]1C(=O)N[C@@H](CC)C(=O)N(C)[C@H](C)C(=O)N(CC)[C@@H](C(C)C)C(=O)N[C@@H](C(C)C)C(=O)N(C)[C@@H](CC(C)C)C(=O)N[C@@H](C)C(=O)N[C@H](C)C(=O)N(C)[C@@H](CC(C)C)C(=O)N(C)[C@@H](CC(C)C)C(=O)N(C)[C@@H](C(C)C)C(=O)N1C [Debio 025, [D-MeAla]^3-[EtVal]^4-CsA, reference compound] | 15000 | 1 | 240 | 1 | 2500 | 420 | 1 |  | 1 | 3200 | 34 |  |  | 
6 | C/C=C/C[C@@H](C)[C@@H](O)[C@H]1C(=O)N[C@@H](CC)C(=O)N(C)[C@H](C)C(=O)N(C)[C@@H](C(C)C)C(=O)N[C@@H](C(C)C)C(=O)N(C)[C@@H](C)C(=O)N[C@@H](C)C(=O)O[C@H](C(C)C)C(=O)N(C)[C@@H](CC(C)C)C(=O)N[C@@H](CC(C)C)C(=O)N(C)[C@@H](C(C)C)C(=O)N1C [(Ie), cyclo-(MeBmt-Abu-D-MeAla-MeVal-Val-MeAla-Ala-D-Hiv-MeLeu-Leu-MeVal)] (cyclo(A[dHiv][NMeL]L[NMeV][MeBmt][Abu][dNMeA][NMeV]V[NMeA])) | 20000 | 0.73 | 600 | 0.40 | 8300 | 580 | 0.72 | 2000 | 0.12 | 26000 | 70 |  |  | 
7 | Cyclosporin A [Cyclosporin A (CsA), reference compound] |  |  |  |  |  |  |  | 6 |  |  |  |  |  | 
8 | C/C=C/C[C@@H](C)[C@@H](O)[C@H]1C(=O)N[C@@H](CC)C(=O)N(C)[C@H](C)C(=O)N(C)[C@@H]([C@@H](C)CC)C(=O)N[C@@H](CC(C)C)C(=O)N(C)[C@@H](CC(C)C)C(=O)NCC(=O)O[C@H](C(C)C)C(=O)N(C)[C@@H](CC(C)C)C(=O)N[C@@H](CC(C)C)C(=O)N(C)[C@@H](C(C)C)C(=O)N1C [(Ii), cyclo-(MeBmt-Abu-D-MeAla-MeIle-Leu-MeLeu-Gly-D-Hiv-MeLeu-Leu-MeVal)] (cyclo([Abu][dNMeA][NMeI]L[NMeL]G[dHiv][NMeL]L[NMeV][MeBmt])) |  |  |  |  |  |  |  |  |  |  |  | 25400 |  | 
